How the values were obtained:
Type in all cases: in vivo
Pharbitis purpurea [1] = assay: Herbicidal action, post-emergence treatment, greenhouse
From the text: (§1) The mixtures according to the invention were applied pre- and/or post-emergence (foliar treatment). The herbicidal compounds of component B) and, if desired, of component C) as well as the safener D) were applied in the formulation in which they are present as commercially available product (s).
(§2) The herbicidally active compounds of components A), B) and, if desired, C), and, if desired D), were applied in succession or jointly, in the latter case in some cases as a tank mix and in some cases as a readymix, in the form of emulsions, aqueous solutions or suspensions, the vehicle being water (300-400 l/ha). In the case of the field trials, application was effected with the aid of a mobile plot sprayer.
(§3) The test period extended over 3 to 8 weeks, and the stands were also observed at later points in time.
(§4) Damage by the herbicidal compositions was evaluated with reference to a scale of 0% to 100% in comparison with untreated control plots. 0 means no damage and 100 means complete destruction of the plants.
(§5) In these examples, the value […] at which only an additive effect of the individual active ingredients is to be expected was calculated by the method of S. R. Colby (Calculating synergistic and antagonistic responses of herbicide combinations, Weeds 15, 20 pp (1967)).
(§6) [formula] where • X=Percentage of the herbicidal action of component A) at an application rate of a; • Y=Percentage of the herbicidal action of component B), and, if desired, C), and, if desired, D) at an application rate of b, and, if desired, c, and, if desired, d; • E=expected herbicidal action of component A)+B), and, if desired C), and; if desired, D) at rates of application a+b, and, if desired, c and, if desired, d (in %).
(§7) If the value observed exceeds the value E calculated in accordance with Colby's formula, then synergism is present.

Abutilon theophrasti = assay: as above
From the text: as §1, §2, §3, §4, §5, §6, §7

Avena fatua = assay: as above
From the text: as §1, §2, §3, §4, §5, §6, §7

Galium aparine = assay: as above; conditions: Table 11, application rate 7.81 g/ha ai
From the text: as §1, §2, §3, §4, §5, §6, §7

Amaranthus retroflexus = assay: as above
From the text: as §1, §2, §3, §4, §5, §6, §7

Bidens pilosa [2] = assay: as above; conditions: Table 12, application rate 7.81 g/ha ai
From the text: as §1, §2, §3, §4, §5, §6, §7

Pharbitis purpurea [3] = assay: Herbicidal action, post-emergence treatment, field; conditions: Table 9, application rate 3.91 g/ha ai
From the text: as §1, §2, §3, §4, §5, §6, §7

Polygonum persicaria = assay: Herbicidal action, post-emergence treatment, field; conditions: Table 10, application rate 1.95 g/ha ai
From the text: as §1, §2, §3, §4, §5, §6, §7

Bidens pilosa [4] = assay: Herbicidal action, post-emergence treatment, field
From the text: as §1, §2, §3, §4, §5, §6, §7

Brachiaria plantaginea = assay: Herbicidal action, post-emergence treatment, field; conditions: Table 15, application rate 3.91 g/ha ai
From the text: as §1, §2, §3, §4, §5, §6, §7

Commelina benghalensis = assay: Herbicidal action, post-emergence treatment, field; conditions: Table 5, application rate 7.81 g/ha ai
From the text: as §1, §2, §3, §4, §5, §6, §7

[5] = Table 3, application rate 1.95 g/ha ai
[6] = Table 4, application rate 0.98 g/ha ai
[7] = Table 3, application rate 3.91 g/ha ai
[8] = Table 4, application rate 1.95 g/ha ai
[9] = Table 6, application rate 3.91 g/ha ai
[10] = Table 8, application rate 1.95 g/ha ai
[11] = Table 14, application rate 3.91 g/ha ai

COc1cc(OC)nc(NC(=O)NS(=O)(=O)c2cc(NC=O)ccc2C(=O)N(C)C)n1 [Compound II, foramsulfuron, reference compound]
Pharbitis purpurea Damage [%] (Pharbitis purpurea [1]; [5]): 80%
Abutilon theophrasti Damage [%] (Abutilon theophrasti; [6]): 30%
Avena fatua Damage [%] (Avena fatua; [5]): 50%
Avena fatua Damage [%] (Avena fatua; [6]): 30%

Cc1c(C(=O)c2cnn(C)c2O)ccc(S(C)(=O)=O)c1C1=NOCC1 [Ia.29, 4-[2-methyl-3-(4,5-dihydroisoxazol-3-yl)-4-methylsulfonyl-benzoyl]-1-methyl-5-hydroxy-1H-pyrazole]
Pharbitis purpurea Damage [%] (Pharbitis purpurea [1]; [7]): 70%
Abutilon theophrasti Damage [%] (Abutilon theophrasti; [8]): 40%
Abutilon theophrasti Damage [%] (Abutilon theophrasti; [9]): 80%
Abutilon theophrasti Damage [%] (Abutilon theophrasti; [10]): 40%
Abutilon theophrasti Damage [%] (Abutilon theophrasti; Table 11, application rate 7.81 g/ha ai): 95%
Abutilon theophrasti Damage [%] (Abutilon theophrasti; Table 12, application rate 7.81 g/ha ai): 95%
Abutilon theophrasti Damage [%] (Abutilon theophrasti; [11]): 80%
Galium aparine Damage [%] (Galium aparine): 30%
Avena fatua Damage [%] (Avena fatua; [7]): 50%
Avena fatua Damage [%] (Avena fatua; [8]): 25%
Amaranthus retroflexus Damage [%] (Amaranthus retroflexus; [9]): 60%
Amaranthus retroflexus Damage [%] (Amaranthus retroflexus; [10]): 40%
Amaranthus retroflexus Damage [%] (Amaranthus retroflexus; [11]): 60%
Bidens pilosa Damage [%] (Bidens pilosa [2]): 60%
Pharbitis purpurea Damage [%] (Pharbitis purpurea [3]): 70%
Polygonum persicaria Damage [%] (Polygonum persicaria): 95%
Bidens pilosa Damage [%] (Bidens pilosa [4]; Table 7, application rate 3.91 g/ha ai): 30%
Bidens pilosa Damage [%] (Bidens pilosa [4]; Table 13, application rate 7.81 g/ha ai): 60%
Brachiaria plantaginea Damage [%] (Brachiaria plantaginea): 80%
Commelina benghalensis Damage [%] (Commelina benghalensis): 40%

Reference: patent US7632782B2, “Synergistically acting herbicidal mixtures” (BASF Aktiengesellschaft, priority 2002, dated 2009)
